Experiments:
Assay in all cases: Cytochrome P450 isoenzyme inhibition, human liver microsomes
Assay type in all cases: in vitro ADME
CYP2D6 = biological target: T1, CYP2D6 (Homo sapiens, UniProt P10635); conditions: read-out: Cytochrome P450 isoenzyme inhibitory concentration CYP2D6
T1 construct: from tissue; host or cells: human liver microsomes
Experimental: (§1) The purpose of this study was to determine the inhibitory effect of test compounds on the activity of human liver microsomal cytochrome P450 isoenzymes (CYP1A2, CYP2C9, CYP2C19, CYP2D6 and CYP3A4).
(§2) Working solutions (100×final concentration) with concentrations of 5.00, 1.50, 0.500, 0.150, 0.0500, 0.0150, and 0.00500 mM were prepared by gradient dilution of the test compound (10.0 mM), while working solutions of each positive inhibitor and its specific substrate mixtures of P450 isozymes (CYP1A2, CYP2C9, CYP2C19, CYP2D6, and CYP3A4) were prepared; human liver microsomes stored in a refrigerator below −60° C. were thawed on ice; after all the human liver microsomes were thawed, the human liver microsomes were diluted with Potassium phosphate buffer (PB) to prepare a certain concentration of working solution (0.253 mg/ml).
(§3) First, 20.0 μL of the substrate mixture was added to a reaction plate (20.0 μL of PB was added to the Blank well), then 158 μL of human liver microsomal working solution was added to the reaction plate, and the reaction plate was placed on ice for use; at this time, 2.00 μL of each concentration of the test compound (N=1) and specific inhibitor (N=2) were added to the corresponding wells, and to the group without inhibitor (test compound or positive inhibitor) was added the corresponding organic solvent as control samples (1:1 DMSO:MeOH for the control sample of the test compound, and 1:9 DMSO:MeOH for all the positive control samples); after pre-incubation in a water bath at 37° C. for 10 min, 20.0 μL of cofactor (NADPH) solution was added to the reaction plate, and the reaction plate was incubated in a water bath at 37° C. for 10 min; The reaction was terminated by adding 400 μL of pre-cooled acetonitrile solution (containing 200 ng/mL Tolbutamide and Labetalol internal standard); the reaction plate was shaken on a shaker for 10 min; then centrifuged at 4000 rpm at 4° C. for 20 min; 200 μL of the supernatant was added to 100 μL of water to dilute the samples; and the plate was sealed, shaken for 10 min to mix well, and then analyzed by LC/MS/MS.
(§4) The rate of production of metabolites of each probe substrate was used to reflect the activity of each CYP isozyme. The activity of each isozyme in the solvent control incubation system without test article or positive inhibitor was set to be 100%, and the rate of production of metabolites of the probe substrate with different concentrations of test article or positive inhibitor was divided by the rate of production of metabolites of the solvent control samples, and then multiplied by 100% as the percentage of residual activity of each isozyme. The IC50 values of the test article and each positive inhibitor were calculated by nonlinear regression analysis using three or four parameters in XL fit software with the percentage of residual activity as the vertical coordinate and the inhibitor concentration as the horizontal coordinate. The IC50 values were labeled as “>50 μM” when the IC50 fitted by XL fit software was greater than the highest administered concentration (50 μM) or when the IC50 could not be fitted.

CYP1A2 = biological target: T2, CYP1A2 (Homo sapiens, UniProt P05177); conditions: read-out: Cytochrome P450 isoenzyme inhibitory concentration CYP1A2
T2 construct: from tissue; host or cells: human liver microsomes
Experimental: as §1, §2, §3, §4

CYP2C9 = biological target: T3, CYP2C9 (Homo sapiens, UniProt P11712); conditions: read-out: Cytochrome P450 isoenzyme inhibitory concentration CYP2C9
T3 construct: from tissue; host or cells: human liver microsomes
Experimental: as §1, §2, §3, §4

CYP3A4 = biological target: T4, CYP3A4 (Homo sapiens, UniProt P08684); conditions: read-out: Cytochrome P450 isoenzyme inhibitory concentration CYP3A4
T4 construct: from tissue; host or cells: human liver microsomes
Experimental: as §1, §2, §3, §4

CYP2C19 = biological target: T5, CYP2C19 (Homo sapiens, UniProt P33261); conditions: read-out: Cytochrome P450 isoenzyme inhibitory concentration CYP2C19
T5 construct: from tissue; host or cells: human liver microsomes
Experimental: as §1, §2, §3, §4

T2 sequence (P05177 whole entry): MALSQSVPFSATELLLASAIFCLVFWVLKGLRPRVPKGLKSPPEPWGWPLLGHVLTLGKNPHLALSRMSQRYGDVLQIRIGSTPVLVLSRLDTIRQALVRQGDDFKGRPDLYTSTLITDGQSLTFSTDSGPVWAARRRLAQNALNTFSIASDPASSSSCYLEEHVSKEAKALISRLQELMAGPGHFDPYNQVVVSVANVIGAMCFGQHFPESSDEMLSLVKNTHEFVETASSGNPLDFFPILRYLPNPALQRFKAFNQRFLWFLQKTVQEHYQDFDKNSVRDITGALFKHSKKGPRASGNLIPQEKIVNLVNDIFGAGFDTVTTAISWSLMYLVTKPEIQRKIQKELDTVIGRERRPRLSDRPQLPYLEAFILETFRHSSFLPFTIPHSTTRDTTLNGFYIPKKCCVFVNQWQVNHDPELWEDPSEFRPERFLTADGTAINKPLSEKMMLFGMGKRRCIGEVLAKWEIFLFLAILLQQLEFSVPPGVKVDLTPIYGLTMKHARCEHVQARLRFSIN
T1 sequence (P10635 whole entry): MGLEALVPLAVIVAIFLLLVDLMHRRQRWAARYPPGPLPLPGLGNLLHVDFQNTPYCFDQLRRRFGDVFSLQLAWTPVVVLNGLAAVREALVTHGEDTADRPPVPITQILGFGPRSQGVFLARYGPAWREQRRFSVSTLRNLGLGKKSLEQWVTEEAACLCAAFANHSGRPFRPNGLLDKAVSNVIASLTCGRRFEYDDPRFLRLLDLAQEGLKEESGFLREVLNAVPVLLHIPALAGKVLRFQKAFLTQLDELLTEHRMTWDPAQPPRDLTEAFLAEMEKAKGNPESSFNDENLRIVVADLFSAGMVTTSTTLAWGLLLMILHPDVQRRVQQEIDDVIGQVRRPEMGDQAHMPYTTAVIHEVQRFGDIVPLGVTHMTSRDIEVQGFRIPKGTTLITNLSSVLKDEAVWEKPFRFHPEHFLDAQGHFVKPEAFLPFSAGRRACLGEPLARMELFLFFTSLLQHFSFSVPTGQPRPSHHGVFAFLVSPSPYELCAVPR
T3 sequence (P11712 whole entry): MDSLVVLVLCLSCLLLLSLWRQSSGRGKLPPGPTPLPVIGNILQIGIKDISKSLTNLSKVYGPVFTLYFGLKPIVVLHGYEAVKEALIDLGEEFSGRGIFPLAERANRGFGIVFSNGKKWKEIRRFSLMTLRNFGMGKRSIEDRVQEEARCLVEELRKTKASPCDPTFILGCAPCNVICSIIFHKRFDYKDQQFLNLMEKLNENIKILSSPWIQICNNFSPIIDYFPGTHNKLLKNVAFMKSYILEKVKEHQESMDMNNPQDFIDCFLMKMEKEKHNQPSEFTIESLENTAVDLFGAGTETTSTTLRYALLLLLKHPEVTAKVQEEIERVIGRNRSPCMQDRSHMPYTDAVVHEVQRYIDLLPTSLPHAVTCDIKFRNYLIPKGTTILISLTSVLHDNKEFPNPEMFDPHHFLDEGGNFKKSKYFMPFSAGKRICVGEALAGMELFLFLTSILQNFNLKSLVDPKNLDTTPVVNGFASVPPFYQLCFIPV
T5 sequence (P33261 whole entry): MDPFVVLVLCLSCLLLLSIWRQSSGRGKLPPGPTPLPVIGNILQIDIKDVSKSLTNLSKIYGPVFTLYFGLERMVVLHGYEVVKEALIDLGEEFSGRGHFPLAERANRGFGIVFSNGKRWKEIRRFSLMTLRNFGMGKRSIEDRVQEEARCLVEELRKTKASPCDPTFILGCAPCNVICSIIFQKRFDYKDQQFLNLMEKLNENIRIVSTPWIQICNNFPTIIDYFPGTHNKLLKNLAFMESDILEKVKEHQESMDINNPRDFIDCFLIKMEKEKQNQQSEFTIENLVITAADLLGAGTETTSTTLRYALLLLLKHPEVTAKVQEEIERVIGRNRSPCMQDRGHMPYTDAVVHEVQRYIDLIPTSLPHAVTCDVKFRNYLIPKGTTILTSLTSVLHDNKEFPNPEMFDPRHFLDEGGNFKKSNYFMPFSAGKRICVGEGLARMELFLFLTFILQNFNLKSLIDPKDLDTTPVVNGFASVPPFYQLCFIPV
T4 sequence (P08684 whole entry): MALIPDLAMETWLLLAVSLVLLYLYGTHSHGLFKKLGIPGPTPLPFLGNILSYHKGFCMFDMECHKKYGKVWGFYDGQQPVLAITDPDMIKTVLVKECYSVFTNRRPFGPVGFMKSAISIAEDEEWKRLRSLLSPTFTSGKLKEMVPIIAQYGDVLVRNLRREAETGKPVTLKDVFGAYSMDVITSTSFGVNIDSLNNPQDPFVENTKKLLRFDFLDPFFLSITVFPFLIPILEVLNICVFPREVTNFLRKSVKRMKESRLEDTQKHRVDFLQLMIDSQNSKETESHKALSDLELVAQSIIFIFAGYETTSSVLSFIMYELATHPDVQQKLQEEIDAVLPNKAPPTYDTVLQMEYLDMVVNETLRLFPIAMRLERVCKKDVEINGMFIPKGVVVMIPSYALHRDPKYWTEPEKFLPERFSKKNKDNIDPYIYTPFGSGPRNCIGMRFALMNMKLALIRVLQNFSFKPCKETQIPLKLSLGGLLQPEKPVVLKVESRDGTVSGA

Row | Compound | IC50 (CYP2D6) | IC50 (CYP1A2) | IC50 (CYP2C9) | IC50 (CYP3A4) | IC50 (CYP2C19)
1 | Cc1cc2cc(n1)-c1cnn(C)c1OC[C@H]1CC[C@H](C1)CN1/C(=N/C2=O)Nc2ccc(N=S(C)(C)=O)cc21 (single isomer, unassigned) [WX-027A] | > 50 µM | > 50 µM | 14 µM | 20 µM | 9.8 µM
2 | Cc1cc2cc(n1)-c1cnn(C)c1OCCC[C@@H](C)CN1/C(=N/C2=O)Nc2ccc(N=S(C)(C)=O)c(Cl)c21 [WX-019] | > 50 µM | > 50 µM | 31 µM | > 50 µM | 3.4 µM
